The record followed here is ChEMBL document CHEMBL1201862, “PubChem BioAssay data set” (2004).

Molecules are shown by their SMILES. Active and inactive are the calls of the source.

For assay [1], the target named is T1, Corticotropin-releasing factor receptor 2/Corticotropin-releasing factor-binding protein (Homo sapiens, UniProt P24387+Q13324).
T1 sequence (Q13324 whole entry): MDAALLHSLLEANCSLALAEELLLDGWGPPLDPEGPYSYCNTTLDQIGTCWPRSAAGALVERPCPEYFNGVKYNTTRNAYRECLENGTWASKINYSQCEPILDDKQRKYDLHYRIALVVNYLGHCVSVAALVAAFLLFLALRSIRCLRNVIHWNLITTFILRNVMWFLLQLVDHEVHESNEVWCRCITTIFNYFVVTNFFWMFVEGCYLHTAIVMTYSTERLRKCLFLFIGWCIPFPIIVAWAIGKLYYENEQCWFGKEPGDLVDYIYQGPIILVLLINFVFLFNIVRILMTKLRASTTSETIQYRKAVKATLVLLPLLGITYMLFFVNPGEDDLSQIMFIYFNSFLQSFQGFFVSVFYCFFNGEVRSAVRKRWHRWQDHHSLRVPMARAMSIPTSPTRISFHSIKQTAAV
T1 sequence (P24387 whole entry): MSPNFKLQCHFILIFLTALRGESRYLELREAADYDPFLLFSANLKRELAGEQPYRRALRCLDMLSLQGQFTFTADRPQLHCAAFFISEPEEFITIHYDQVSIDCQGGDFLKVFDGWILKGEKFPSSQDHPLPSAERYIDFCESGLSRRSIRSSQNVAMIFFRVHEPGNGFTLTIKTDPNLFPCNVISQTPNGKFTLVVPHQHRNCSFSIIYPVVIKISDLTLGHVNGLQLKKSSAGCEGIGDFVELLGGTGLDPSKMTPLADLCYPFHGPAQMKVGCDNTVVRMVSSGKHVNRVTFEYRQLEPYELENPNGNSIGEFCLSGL
As to the kind of experiment: activators of CRF receptor 2 with binding protein – uHTS hits, confirmation (AID 602473). Format: functional. The settings on record: read-out: EC50_Mean.

Assay [2] addresses T2, DNA repair protein RAD52 homolog (Homo sapiens, UniProt P43351).
T2 sequence (P43351 whole entry): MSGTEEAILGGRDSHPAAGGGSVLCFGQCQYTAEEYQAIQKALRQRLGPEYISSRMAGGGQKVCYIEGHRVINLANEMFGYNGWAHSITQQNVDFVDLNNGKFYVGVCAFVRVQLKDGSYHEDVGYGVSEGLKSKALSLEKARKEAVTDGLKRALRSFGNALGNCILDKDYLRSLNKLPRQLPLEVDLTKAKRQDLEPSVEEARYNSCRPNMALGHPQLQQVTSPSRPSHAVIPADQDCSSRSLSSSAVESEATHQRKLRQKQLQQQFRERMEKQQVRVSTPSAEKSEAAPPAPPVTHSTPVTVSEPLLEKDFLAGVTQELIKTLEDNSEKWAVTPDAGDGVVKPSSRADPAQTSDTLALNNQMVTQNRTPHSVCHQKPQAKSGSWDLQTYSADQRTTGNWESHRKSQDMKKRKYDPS
Format: functional, biochemical.

Assay [3] concerns Escherichia coli. As to the kind of experiment: microbe, parasite or virus in culture.
Assay [4] has as its system Escherichia coli. As to the kind of experiment: microbe, parasite or virus in culture. The source holds these as a separate data set.
Assay [5] addresses T3, Rac GTPase-activating protein 1 (Homo sapiens, UniProt Q9H0H5).
T3 sequence (Q9H0H5 whole entry): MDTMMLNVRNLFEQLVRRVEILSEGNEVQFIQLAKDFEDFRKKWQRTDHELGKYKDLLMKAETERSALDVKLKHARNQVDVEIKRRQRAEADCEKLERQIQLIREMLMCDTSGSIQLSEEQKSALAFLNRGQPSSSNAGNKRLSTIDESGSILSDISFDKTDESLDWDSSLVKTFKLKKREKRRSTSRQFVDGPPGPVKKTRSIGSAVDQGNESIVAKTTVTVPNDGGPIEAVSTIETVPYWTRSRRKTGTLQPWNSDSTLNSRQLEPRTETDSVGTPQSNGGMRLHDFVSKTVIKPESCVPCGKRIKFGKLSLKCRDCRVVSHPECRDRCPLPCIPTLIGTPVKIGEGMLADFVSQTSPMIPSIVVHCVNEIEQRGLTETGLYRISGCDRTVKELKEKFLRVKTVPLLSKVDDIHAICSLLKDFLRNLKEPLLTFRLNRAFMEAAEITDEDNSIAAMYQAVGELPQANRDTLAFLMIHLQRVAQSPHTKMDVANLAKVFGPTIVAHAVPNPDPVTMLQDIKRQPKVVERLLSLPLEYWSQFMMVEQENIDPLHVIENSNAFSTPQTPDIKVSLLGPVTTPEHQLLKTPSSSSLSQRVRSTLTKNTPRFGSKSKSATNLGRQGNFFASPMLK
The assay can be described thus: MgcRacGAP GTPase-activating activity inhibitors, confirmation, biochemical, ADP Hunter fluorescence, primary and confirmatory (AID 624330). Type of assay: functional.

The target in assay [6] is T1, Corticotropin-releasing factor receptor 2/Corticotropin-releasing factor-binding protein. As to the kind of experiment: Dose Response confirmation of uHTS hits for small molecule antagonists of the CRF-binding protein and CRF-R2 receptor complex. Format: functional. Conditions: read-out: IC50_Mean.
For assay [7], the target named is T4, Heat shock factor protein 1 (Mus musculus, UniProt P38532).
T4 sequence (P38532 whole entry): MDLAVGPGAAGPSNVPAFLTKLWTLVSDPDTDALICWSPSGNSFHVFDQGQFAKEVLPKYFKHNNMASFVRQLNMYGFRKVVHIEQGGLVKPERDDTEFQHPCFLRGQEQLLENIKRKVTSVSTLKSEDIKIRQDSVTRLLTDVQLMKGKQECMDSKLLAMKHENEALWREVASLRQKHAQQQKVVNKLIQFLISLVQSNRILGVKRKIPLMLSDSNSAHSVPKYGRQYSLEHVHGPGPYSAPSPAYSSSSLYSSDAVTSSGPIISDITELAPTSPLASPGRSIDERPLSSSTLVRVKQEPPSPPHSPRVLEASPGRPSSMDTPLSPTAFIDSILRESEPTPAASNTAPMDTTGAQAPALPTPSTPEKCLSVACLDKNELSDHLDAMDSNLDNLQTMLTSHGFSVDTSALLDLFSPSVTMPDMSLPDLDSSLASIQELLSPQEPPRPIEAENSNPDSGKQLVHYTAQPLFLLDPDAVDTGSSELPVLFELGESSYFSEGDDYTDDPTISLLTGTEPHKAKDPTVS
The assay can be described thus: HSF1 potentiators in luciferase reporter cells, confirmation, cell-based, NIH3T3, luminescence, dose retest (AID 435004).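 Further: stress induced by proteasome inhibitor MG132 added 30 min after compound; luciferase reporter driven by HSF1 response element in NIH3T3 cells; actives raise luminescence as potentiators of the MG132 stress response.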 Type of assay: functional. A general note: A reporter such as luciferase makes a cellular process visible.

Assay [8] has as its target T5, Sentrin-specific protease 6 (Homo sapiens, UniProt Q9GZR1).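 Further: Luminescence-based dose-response confirmatory assay of SENP6 inhibition, following up an ultra-high-throughput screen.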
T5 sequence (Q9GZR1 whole entry): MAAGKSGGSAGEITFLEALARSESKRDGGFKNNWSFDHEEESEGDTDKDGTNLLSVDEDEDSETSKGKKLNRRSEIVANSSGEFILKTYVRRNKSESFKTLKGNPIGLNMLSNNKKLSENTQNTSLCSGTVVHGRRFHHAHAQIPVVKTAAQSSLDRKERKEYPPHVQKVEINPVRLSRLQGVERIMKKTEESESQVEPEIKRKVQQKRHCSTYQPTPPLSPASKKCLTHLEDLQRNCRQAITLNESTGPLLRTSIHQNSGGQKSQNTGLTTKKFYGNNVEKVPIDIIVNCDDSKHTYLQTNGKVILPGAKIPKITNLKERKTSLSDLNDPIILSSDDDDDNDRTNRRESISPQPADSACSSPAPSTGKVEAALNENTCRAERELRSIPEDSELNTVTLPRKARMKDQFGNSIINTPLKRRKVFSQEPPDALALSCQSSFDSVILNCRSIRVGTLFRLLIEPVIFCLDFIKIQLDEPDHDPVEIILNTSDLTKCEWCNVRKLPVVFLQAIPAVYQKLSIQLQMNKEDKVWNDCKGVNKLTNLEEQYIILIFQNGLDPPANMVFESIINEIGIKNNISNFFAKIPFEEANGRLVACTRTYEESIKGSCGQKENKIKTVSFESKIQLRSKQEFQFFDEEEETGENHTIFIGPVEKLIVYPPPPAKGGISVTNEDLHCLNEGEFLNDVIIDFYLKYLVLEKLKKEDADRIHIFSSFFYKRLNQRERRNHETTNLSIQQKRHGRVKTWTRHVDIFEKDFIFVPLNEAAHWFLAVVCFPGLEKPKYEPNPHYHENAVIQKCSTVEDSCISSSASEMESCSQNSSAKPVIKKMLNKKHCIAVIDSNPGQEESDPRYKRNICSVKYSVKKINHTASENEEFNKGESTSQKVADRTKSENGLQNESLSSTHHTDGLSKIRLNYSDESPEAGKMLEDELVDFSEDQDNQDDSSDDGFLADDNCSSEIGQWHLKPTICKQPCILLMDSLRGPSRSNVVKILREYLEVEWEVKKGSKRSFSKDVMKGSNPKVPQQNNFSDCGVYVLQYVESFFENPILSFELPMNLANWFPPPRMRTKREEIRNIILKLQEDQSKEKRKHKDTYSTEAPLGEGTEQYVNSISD
Type of assay: functional.

Assay [9] deals with T6, Sentrin-specific protease 8 (Homo sapiens, UniProt Q96LD8).
T6 sequence (Q96LD8 whole entry): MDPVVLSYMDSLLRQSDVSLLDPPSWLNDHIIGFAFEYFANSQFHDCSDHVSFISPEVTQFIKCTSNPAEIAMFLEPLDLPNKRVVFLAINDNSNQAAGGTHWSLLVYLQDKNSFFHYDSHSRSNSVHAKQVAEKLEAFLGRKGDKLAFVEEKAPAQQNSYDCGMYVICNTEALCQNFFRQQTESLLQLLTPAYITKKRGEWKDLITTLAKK
Format: functional.

In assay [10] the target is T7, Caspase-3 (Homo sapiens, UniProt P42574).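 Further: Dose-response selectivity test against caspase-3 for candidate inhibitors of sentrin-specific proteases (SENPs).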
T7 sequence (P42574 whole entry): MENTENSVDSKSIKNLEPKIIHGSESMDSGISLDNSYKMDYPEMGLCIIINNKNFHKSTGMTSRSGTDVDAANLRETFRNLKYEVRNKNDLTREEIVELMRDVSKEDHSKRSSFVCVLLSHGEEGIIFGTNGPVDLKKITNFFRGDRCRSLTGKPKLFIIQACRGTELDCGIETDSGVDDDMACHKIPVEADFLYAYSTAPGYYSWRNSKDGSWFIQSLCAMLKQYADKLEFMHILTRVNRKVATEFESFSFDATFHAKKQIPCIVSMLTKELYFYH
Type of assay: functional.

In assay [11] the target is T8, Sentrin-specific protease 7 (Homo sapiens, UniProt Q9BQF6).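 Further: Luminescence-based dose-response confirmation of ultra-high-throughput screening hits, measuring inhibition of SENP7.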
T8 sequence (Q9BQF6 whole entry): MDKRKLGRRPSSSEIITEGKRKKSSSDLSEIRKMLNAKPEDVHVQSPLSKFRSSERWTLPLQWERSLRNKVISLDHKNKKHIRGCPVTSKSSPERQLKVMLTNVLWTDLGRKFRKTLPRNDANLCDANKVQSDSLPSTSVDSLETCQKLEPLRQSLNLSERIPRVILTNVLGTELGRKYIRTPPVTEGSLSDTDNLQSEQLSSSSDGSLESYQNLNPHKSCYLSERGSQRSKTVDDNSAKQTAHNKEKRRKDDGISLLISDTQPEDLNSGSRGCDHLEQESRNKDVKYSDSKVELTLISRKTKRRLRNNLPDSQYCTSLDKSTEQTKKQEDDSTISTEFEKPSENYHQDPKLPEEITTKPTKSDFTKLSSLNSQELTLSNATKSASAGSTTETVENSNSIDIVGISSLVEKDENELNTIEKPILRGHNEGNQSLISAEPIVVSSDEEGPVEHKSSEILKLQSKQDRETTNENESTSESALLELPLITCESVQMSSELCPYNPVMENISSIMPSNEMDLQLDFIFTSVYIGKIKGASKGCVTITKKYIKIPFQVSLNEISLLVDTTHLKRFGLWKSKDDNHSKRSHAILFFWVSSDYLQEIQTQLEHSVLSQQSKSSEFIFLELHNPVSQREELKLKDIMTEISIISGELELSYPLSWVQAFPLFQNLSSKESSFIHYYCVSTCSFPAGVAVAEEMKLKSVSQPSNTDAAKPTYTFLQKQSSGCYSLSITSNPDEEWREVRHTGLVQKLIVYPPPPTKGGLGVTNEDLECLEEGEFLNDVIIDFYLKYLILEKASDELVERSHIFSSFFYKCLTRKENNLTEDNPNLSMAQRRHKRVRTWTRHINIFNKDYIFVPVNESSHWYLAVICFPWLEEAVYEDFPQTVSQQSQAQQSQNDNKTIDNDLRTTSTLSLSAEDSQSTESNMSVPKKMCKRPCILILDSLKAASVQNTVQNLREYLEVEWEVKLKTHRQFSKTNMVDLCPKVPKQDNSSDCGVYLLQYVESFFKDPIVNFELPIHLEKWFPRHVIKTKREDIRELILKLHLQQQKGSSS
Format: functional.

The nature of assay [12]: Luminescence Cell-Based Dose Retest to Confirm Inhibitors of Cancer Stem Cells. [Related pubchem assays (depositor defined):AID2717, AID2721]. Type of assay: functional. The settings on record: Homo sapiens.
Assay [13] addresses T9, Fatty acid synthase (Homo sapiens, UniProt P49327). The assay can be described thus: FAS thioesterase domain inhibitors, dose response, biochemical, kinetic fluorescence intensity (AID 624326).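 Further: rate of fluorescence rise from hydrolysis of a fluorogenic O-methyl fluorescein ester substrate.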 Type of assay: functional.
In assay [14] the target is T9, Fatty acid synthase. As to the kind of experiment: FAS thioesterase domain inhibitors, dose response, biochemical, endpoint fluorescence intensity, uHTS hits (AID 624327).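 Further: fluorescence from hydrolysis of an O-methyl fluorescein acyl ester substrate by the enzyme.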 Format: functional.

T9 sequence (P49327 whole entry, the tested form may be a part): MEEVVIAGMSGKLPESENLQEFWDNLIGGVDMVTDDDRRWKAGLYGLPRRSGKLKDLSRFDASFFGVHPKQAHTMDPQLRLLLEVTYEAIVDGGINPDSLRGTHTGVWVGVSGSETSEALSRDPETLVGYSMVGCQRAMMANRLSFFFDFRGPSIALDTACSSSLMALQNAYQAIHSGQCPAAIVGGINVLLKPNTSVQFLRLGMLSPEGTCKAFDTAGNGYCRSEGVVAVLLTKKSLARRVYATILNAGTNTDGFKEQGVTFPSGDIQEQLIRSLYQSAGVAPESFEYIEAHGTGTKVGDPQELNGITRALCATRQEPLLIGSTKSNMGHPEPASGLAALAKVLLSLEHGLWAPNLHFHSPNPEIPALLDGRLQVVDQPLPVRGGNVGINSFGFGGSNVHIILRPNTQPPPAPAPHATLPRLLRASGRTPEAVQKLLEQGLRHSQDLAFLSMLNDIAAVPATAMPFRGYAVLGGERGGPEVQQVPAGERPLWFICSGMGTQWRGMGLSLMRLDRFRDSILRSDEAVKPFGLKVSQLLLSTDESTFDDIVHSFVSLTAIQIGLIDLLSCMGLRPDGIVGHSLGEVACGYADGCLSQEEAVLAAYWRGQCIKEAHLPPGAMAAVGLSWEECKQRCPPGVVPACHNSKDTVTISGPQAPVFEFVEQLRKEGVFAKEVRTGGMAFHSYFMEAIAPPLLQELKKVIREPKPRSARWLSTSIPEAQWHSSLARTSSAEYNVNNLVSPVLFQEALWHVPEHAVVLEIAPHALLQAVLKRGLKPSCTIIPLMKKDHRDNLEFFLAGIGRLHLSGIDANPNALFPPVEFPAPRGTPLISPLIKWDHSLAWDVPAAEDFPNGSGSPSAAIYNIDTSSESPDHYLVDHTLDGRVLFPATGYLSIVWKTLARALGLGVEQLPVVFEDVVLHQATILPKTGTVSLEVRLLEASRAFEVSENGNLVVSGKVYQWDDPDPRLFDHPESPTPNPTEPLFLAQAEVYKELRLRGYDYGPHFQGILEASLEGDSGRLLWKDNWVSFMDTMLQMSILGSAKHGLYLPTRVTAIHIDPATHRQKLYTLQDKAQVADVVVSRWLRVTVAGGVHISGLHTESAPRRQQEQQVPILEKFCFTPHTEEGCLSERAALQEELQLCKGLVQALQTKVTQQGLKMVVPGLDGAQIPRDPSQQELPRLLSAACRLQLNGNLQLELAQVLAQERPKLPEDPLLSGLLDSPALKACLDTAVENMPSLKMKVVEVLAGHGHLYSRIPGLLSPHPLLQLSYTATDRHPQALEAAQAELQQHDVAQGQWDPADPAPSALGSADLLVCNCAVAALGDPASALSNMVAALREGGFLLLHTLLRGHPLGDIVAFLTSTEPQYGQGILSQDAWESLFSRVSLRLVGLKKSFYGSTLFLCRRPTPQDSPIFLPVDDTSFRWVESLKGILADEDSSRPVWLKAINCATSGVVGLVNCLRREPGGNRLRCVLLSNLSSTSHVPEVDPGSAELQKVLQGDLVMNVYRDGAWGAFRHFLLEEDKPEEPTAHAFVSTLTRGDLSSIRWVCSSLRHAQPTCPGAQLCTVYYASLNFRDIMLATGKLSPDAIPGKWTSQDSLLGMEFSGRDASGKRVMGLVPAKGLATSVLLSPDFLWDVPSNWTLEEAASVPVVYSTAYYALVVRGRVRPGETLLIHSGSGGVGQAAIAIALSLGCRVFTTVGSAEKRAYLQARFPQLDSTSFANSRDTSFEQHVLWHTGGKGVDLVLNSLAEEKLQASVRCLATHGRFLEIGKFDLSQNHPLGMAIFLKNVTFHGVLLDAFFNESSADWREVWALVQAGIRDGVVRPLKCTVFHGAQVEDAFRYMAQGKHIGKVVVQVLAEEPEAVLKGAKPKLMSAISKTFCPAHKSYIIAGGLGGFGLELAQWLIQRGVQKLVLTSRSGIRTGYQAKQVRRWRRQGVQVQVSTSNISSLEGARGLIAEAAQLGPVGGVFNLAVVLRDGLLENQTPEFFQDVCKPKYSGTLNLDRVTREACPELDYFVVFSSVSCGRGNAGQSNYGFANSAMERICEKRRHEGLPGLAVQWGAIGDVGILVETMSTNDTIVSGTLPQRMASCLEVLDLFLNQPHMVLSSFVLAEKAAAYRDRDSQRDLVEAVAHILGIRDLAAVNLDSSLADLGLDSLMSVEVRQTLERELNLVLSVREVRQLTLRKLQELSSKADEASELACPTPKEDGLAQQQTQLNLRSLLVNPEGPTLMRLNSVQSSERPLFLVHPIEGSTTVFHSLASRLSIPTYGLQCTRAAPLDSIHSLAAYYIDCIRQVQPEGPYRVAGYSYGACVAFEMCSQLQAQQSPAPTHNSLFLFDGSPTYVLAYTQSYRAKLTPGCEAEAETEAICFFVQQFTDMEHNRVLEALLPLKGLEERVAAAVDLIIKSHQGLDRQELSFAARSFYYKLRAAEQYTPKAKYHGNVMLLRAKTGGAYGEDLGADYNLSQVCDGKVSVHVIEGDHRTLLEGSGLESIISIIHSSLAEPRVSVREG

One may read the AC50 as the midpoint of the concentration-response curve, whichever way the signal moves. As for `NCC[C@H](O)C(=O)N[C@@H]1C[C@H](N)[C@@H](O[C@H]2O[C@H](CN)[C@@H](O)[C@H](O)[C@H]2O)[C@H](O)[C@H]1O[C@H]1O[C@H](CO)[C@@H](O)[C@H](N)[C@H]1O`, the EC50 in [1] was > 53 µM (inactive). The values for the AC50 in assay [2], in [3] and in [4] were 5.91 µM (active), 14.9 µM (active) and 4.69 µM (active), respectively. In addition, the figures for the IC50 in assay [5] and in assay [6] were 113 µM (active) and > 47.1 µM (inactive), respectively.
`COc1nc(C)ccc1-c1noc(-c2cccs2)n1`: the EC50 in assay [7] was > 260 µM (inactive). The IC50 in [8] is 32.7 µM (active); in assay [9], 9.82 µM (active); in assay [10], 13 µM (active); in [11], 5.07 µM (active).
As to `O=C(O)c1ccc(-c2nc(O)c3c(-c4ccccc4)csc3n2)cc1`, the IC50 was 56.1 µM (active) in assay [8], 61.6 µM (active) in [9], > 100 µM (inactive) in assay [10] and 40.4 µM (active) in assay [11].
With `COc1ccc2nc(NC(=O)c3ccc([N+](=O)[O-])o3)sc2c1`, the IC50 in assay [8] is 13.8 µM (active); in assay [9], 22.9 µM (active); in assay [10] it was 28.2 µM (active); in assay [13], 8.39 µM (active); in assay [14], 14.5 µM (active); in assay [11], 4.54 µM (active). Also, the AC50 in [12] was 1.96 µM (active).
